Test results from BigSolDB 2.1.

ON(Cc1ccccc1)Cc1ccccc1
Conditions | solubility (mole fraction)
in 1,2,4-trichlorobenzene, 293.75 K | 0.00704
in 1,2,4-trichlorobenzene, 299.15 K | 0.0103
in 1,2,4-trichlorobenzene, 303.25 K | 0.0138
in 1,2,4-trichlorobenzene, 308.45 K | 0.0198
in 1,2,4-trichlorobenzene, 313.15 K | 0.0263
in 1,2,4-trichlorobenzene, 318.15 K | 0.0367
in 1,2,4-trichlorobenzene, 323.15 K | 0.0502
in 1,2-dichlorobenzene, 273.15 K | 0.00343
in 1,2-dichlorobenzene, 279.15 K | 0.00486
in 1,2-dichlorobenzene, 283.65 K | 0.00624
in 1,2-dichlorobenzene, 289.15 K | 0.0086
in 1,2-dichlorobenzene, 293.25 K | 0.0106
in 1,2-dichlorobenzene, 298.65 K | 0.0142
in 1,2-dichlorobenzene, 303.25 K | 0.0182
in 1,2-dichlorobenzene, 309.05 K | 0.024
in 1,2-dichlorobenzene, 313.25 K | 0.0302
in 1,2-dichlorobenzene, 318.95 K | 0.0395
in 1,2-dichlorobenzene, 323.35 K | 0.0475
in THF, 273.65 K | 0.051
in THF, 279.15 K | 0.0594
in THF, 284.15 K | 0.0678
in THF, 289.15 K | 0.0773
in THF, 293.75 K | 0.0865
in THF, 299.15 K | 0.0986
in THF, 303.25 K | 0.109
in THF, 308.45 K | 0.123
in THF, 313.15 K | 0.137
in THF, 318.15 K | 0.152
in THF, 323.15 K | 0.169
in acetone, 273.15 K | 0.00762
in acetone, 279.15 K | 0.0102
in acetone, 283.45 K | 0.0124
in acetone, 289.05 K | 0.0159
in acetone, 293.05 K | 0.0186
in acetone, 297.65 K | 0.0229
in acetone, 302.85 K | 0.0282
in acetone, 308.05 K | 0.035
in acetone, 313.15 K | 0.0425
in acetone, 317.15 K | 0.0489
in acetone, 323.15 K | 0.0598
in acetonitrile, 273.15 K | 0.00152
in acetonitrile, 279.15 K | 0.00222
in acetonitrile, 283.45 K | 0.00283
in acetonitrile, 289.05 K | 0.00387
in acetonitrile, 293.05 K | 0.0049
in acetonitrile, 297.65 K | 0.00624
in acetonitrile, 302.85 K | 0.00815
in acetonitrile, 308.05 K | 0.0108
in acetonitrile, 313.15 K | 0.014
in acetonitrile, 317.15 K | 0.0168
in acetonitrile, 323.15 K | 0.0217
in cyclohexanone, 273.15 K | 0.0233
in cyclohexanone, 279.15 K | 0.0292
in cyclohexanone, 283.65 K | 0.0341
in cyclohexanone, 289.15 K | 0.041
in cyclohexanone, 293.25 K | 0.0471
in cyclohexanone, 298.65 K | 0.056
in cyclohexanone, 303.25 K | 0.0654
in cyclohexanone, 309.05 K | 0.0778
in cyclohexanone, 313.25 K | 0.09
in cyclohexanone, 318.95 K | 0.105
in cyclohexanone, 323.35 K | 0.119
in dichloromethane, 273.15 K | 0.0132
in dichloromethane, 279.15 K | 0.0179
in dichloromethane, 283.45 K | 0.0226
in dichloromethane, 289.05 K | 0.0287
in dichloromethane, 293.05 K | 0.0345
in dichloromethane, 297.65 K | 0.0425
in dichloromethane, 302.85 K | 0.0534
in dichloromethane, 308.05 K | 0.0657
in dichloromethane, 312.15 K | 0.0798
in ethanol, 273.15 K | 0.00127
in ethanol, 279.15 K | 0.00172
in ethanol, 283.45 K | 0.00215
in ethanol, 289.05 K | 0.00281
in ethanol, 293.05 K | 0.00342
in ethanol, 297.65 K | 0.00426
in ethanol, 302.85 K | 0.00543
in ethanol, 308.05 K | 0.00695
in ethanol, 313.15 K | 0.00863
in ethanol, 317.15 K | 0.0103
in ethanol, 323.15 K | 0.013
in ethyl acetate, 273.15 K | 0.00842
in ethyl acetate, 279.15 K | 0.0114
in ethyl acetate, 283.45 K | 0.0139
in ethyl acetate, 289.05 K | 0.0178
in ethyl acetate, 293.05 K | 0.0209
in ethyl acetate, 297.65 K | 0.0256
in ethyl acetate, 302.85 K | 0.0317
in ethyl acetate, 308.05 K | 0.0395
in ethyl acetate, 313.15 K | 0.0483
in ethyl acetate, 317.15 K | 0.0551
in ethyl acetate, 323.15 K | 0.0679
in isobutanol, 273.15 K | 0.000771
in isobutanol, 279.15 K | 0.00114
in isobutanol, 283.65 K | 0.00149
in isobutanol, 289.15 K | 0.00208
in isobutanol, 293.25 K | 0.00258
in isobutanol, 298.65 K | 0.00355
in isobutanol, 303.25 K | 0.00446
in isobutanol, 309.05 K | 0.00613
in isobutanol, 313.25 K | 0.00753
in isobutanol, 318.95 K | 0.0097
in isobutanol, 323.35 K | 0.0119
in isopropanol, 273.15 K | 0.000527
in isopropanol, 279.15 K | 0.000822
in isopropanol, 283.65 K | 0.00111
in isopropanol, 289.15 K | 0.00164
in isopropanol, 293.25 K | 0.00206
in isopropanol, 298.65 K | 0.00298
in isopropanol, 303.25 K | 0.00389
in isopropanol, 309.05 K | 0.00542
in isopropanol, 313.25 K | 0.00677
in isopropanol, 318.95 K | 0.00891
in isopropanol, 323.35 K | 0.0114
in methanol, 273.15 K | 0.00126
in methanol, 279.15 K | 0.00171
in methanol, 283.45 K | 0.00209
in methanol, 289.05 K | 0.00276
in methanol, 293.05 K | 0.00333
in methanol, 297.65 K | 0.00409
in methanol, 302.85 K | 0.00513
in methanol, 308.05 K | 0.00648
in methanol, 313.15 K | 0.00795
in methanol, 317.15 K | 0.00934
in methanol, 323.15 K | 0.0117
in n-butanol, 273.15 K | 0.00141
in n-butanol, 279.15 K | 0.00198
in n-butanol, 283.45 K | 0.00248
in n-butanol, 289.05 K | 0.00338
in n-butanol, 293.05 K | 0.00411
in n-butanol, 297.65 K | 0.00509
in n-butanol, 302.85 K | 0.00663
in n-butanol, 308.05 K | 0.00843
in n-butanol, 313.15 K | 0.0108
in n-butanol, 317.15 K | 0.0127
in n-butanol, 323.15 K | 0.0159
in n-octanol, 273.15 K | 0.00126
in n-octanol, 279.15 K | 0.00187
in n-octanol, 283.65 K | 0.00248
in n-octanol, 289.15 K | 0.00352
in n-octanol, 293.25 K | 0.00449
in n-octanol, 298.65 K | 0.00627
in n-octanol, 303.25 K | 0.00789
in n-octanol, 309.05 K | 0.011
in n-octanol, 313.25 K | 0.0136
in n-octanol, 318.95 K | 0.0178
in n-octanol, 323.35 K | 0.022
in n-pentanol, 273.65 K | 0.00163
in n-pentanol, 279.15 K | 0.00226
in n-pentanol, 284.15 K | 0.00291
in n-pentanol, 289.15 K | 0.00386
in n-pentanol, 293.75 K | 0.00479
in n-pentanol, 299.15 K | 0.00631
in n-pentanol, 303.25 K | 0.00766
in n-pentanol, 308.45 K | 0.00965
in n-pentanol, 313.15 K | 0.0121
in n-pentanol, 318.15 K | 0.0151
in n-pentanol, 323.15 K | 0.0185
in n-propanol, 273.15 K | 0.00136
in n-propanol, 279.15 K | 0.00187
in n-propanol, 283.45 K | 0.00232
in n-propanol, 289.05 K | 0.00313
in n-propanol, 293.05 K | 0.00383
in n-propanol, 297.65 K | 0.00476
in n-propanol, 302.85 K | 0.00606
in n-propanol, 308.05 K | 0.00781
in n-propanol, 313.15 K | 0.00991
in n-propanol, 317.15 K | 0.012
in n-propanol, 323.15 K | 0.015
in toluene, 273.15 K | 0.0043
in toluene, 279.15 K | 0.00586
in toluene, 283.65 K | 0.00732
in toluene, 289.15 K | 0.00959
in toluene, 293.25 K | 0.0114
in toluene, 298.65 K | 0.0149
in toluene, 303.25 K | 0.0182
in toluene, 309.05 K | 0.0231
in toluene, 313.25 K | 0.0273
in toluene, 318.95 K | 0.0337
in toluene, 323.35 K | 0.0398
